{
  "source": "paper PMC1082716",
  "about": "“Blockade of chemokine-induced signalling inhibits CCR5-dependent HIV infection in vitro without blocking gp120/CCR5 interaction” (Retrovirology, 2005)",
  "key": {"CXCR4": {"molecular_target": "T1, CXCR4 (Homo sapiens, UniProt P61073)", "T1 construct": "CXCR4, which is expressed on both THP-1 and Jurkat cells, but at higher levels on the T-cell line; endogenous in cells; host or cells: Jurkat T-cells (whole cells, 10^6 per well, 4°C)", "T1 sequence (P61073 whole entry)": "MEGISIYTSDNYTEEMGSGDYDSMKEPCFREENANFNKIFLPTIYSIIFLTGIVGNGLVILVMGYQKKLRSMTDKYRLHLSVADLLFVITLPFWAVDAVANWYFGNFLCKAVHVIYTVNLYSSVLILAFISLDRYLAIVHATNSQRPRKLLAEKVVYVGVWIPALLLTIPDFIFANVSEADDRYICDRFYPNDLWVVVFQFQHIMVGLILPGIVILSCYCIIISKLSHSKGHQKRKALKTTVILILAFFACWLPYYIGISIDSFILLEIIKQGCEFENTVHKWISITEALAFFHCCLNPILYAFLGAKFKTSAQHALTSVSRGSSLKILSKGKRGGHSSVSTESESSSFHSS", "test": "Specific binding of biotinylated gp120:V3(IIIb) peptide to Jurkat cells", "settings": "100 μM biotinylated gp120:V3(IIIb); various concentrations of inhibitor; 10^6 cells in 100 μl, 4°C; triplicate"}, "[1]": {"tested_on": "SDF-1α induced chemotaxis", "test": "SDF-1α induced chemotaxis (ChemoTx transwell)", "format": "cell-based", "settings": "100 ng/ml SDF1α; various concentrations of inhibitor in both compartments; 5 × 10^4 cells per well; 2 h, 37°C; MTT; triplicate", "protocol": "Figure 2 Effect of Peptide 3 on gp120:V3 loop peptide binding to cells. (a) The binding of 100 μM N-terminal biotinylated gp120:V3(IIIb) to THP-1 cells was measured in the presence of various concentrations of peptide 3. […] (b) Chemotaxis in response to 100 ng/ml SDF1α was measured in the presence of various concentrations of peptide 3. […] (e) As for (a) except that the effect of Peptide 3 on the binding of gp120:V3(BaL) to THP-1 cells was determined. (f) As for (b) except that the effect of Peptide 3 on chemotaxis induced by 25 ng/ml MIP1α was determined. All binding reactions were performed with 10^6 cells in 100 μl of binding medium at 4°C. Chemotaxis assays were performed with 5 × 10^4 cells per well. Values are mean ± SEM of triplicate determinations.\nChemotaxis experiments were performed essentially as previously described, using the ChemoTx disposable 96-well transwell migration plates, with PVP-free membrane (6 μm pore size). Chemoattractant (lower compartment) and cells upper compartment) were suspended in Gey's Balanced salt solution + 1 mg/ml BSA. […] Migration was allowed to proceed for 2 hours at 37°C. […] Each condition was determined in triplicate, and the number of cells migrating in the absence of chemoattractant was subtracted to determine the chemokine-dependent chemotaxis which was reported."}, "chemokine receptors": {"tested_on": "chemokine receptors", "settings": "ref [27]; cited from earlier work"}},
  "note": "Entries after “also recorded” stand apart in the source; their conditions may differ.",
  "data": [
    {"sequence": "EICADPKQKWVQ [Peptide 3]", "values": [
      {"measurement": "Effect on binding of gp120:V3(IIIb) to Jurkat cells", "setting": "CXCR4", "result": "no effect"},
      {"measurement": "Effect on SDF-1α induced chemotaxis", "setting": "[1]", "result": "powerfully inhibited; also recorded: efficiently blocks"},
      {"measurement": "Effect on binding of chemokine ligands to the receptors", "setting": "chemokine receptors", "result": "do not block"}
    ]}
  ]
}
